Experimental data taken from patent US6365623B1, “Treatment of acne using lipoic acid” (priority 1997, dated 2002).
Where “and” joins values, the source holds several entries; their conditions need not be identical. Identical values can stand only once.

Key:
[1] = tested on: patients with acne vulgaris and/or acneiform scars; test: Clinical study of 5% lipoic acid cream applied to the face, assessed by a dermatologist; format: in vivo, human
Protocol: The following examples are presented to further illustrate and explain the present invention and should not be taken as limiting in any regard. Unless otherwise indicated, all percentages are by weight. Lipoic acid was supplied by the Henkel Corporation and was placed into a lecithin-based oil-in-water cream at a level of 5% for use by acne patients. This composition was used in the studies unless otherwise indicated.
Eight patients with acne vulgaris and/or acneiform scars were evaluated and photographed at the beginning of the study. The patients were asked to cleanse their faces with Cetaphil™ lotion twice daily, and then to apply the test lipoic acid composition. Clinical evaluations were made every four weeks thereafter. Photographs were retaken at the end of twelve weeks, and five patients continued treatment for up to a year.
The following parameters were reported in clinical assessments by a dermatologist in the follow-up evaluations:
1. visibly apparent changes in erythema
2. visibly apparent changes in pore size

[2] = tested on: affected skin areas; test: Adverse side effects in clinical studies to date (topical application); format: in vivo, human
Excerpt: Generally in the practice of the method of the invention, the composition is topically applied to the affected skin areas in a predetermined or as-needed regimen either at intervals by application of a lotion or the like, it generally being the case that gradual improvements is noted with each successive application.

[3] = Skin penetration after topical application; format: in vivo; conditions: four hours after application to skin
Excerpt: While not wishing to be bound to any theory, it is possible that lipoic acid is efficacious in the treatment of acne because it is both fat- and water-soluble and readily disperses in cell membranes and other cellular components. […] Because of its solubility, it is sometimes referred to as a universal antioxidant. It acts as a free radical scavenger and neutralizer, and prevents the cross-linking of cell membranes that is often seen in acne in its post-inflammatory phases. By the same token, LA modulation of free radicals and other oxidative species affects gene expression, including expression of nuclear factor κ-B (NF-κB), nitric oxide synthetase and other mediators at all stages of proinflammation and inflammation. Lipoic acid's alteration of lipid peroxidation, protein cross-linking, growth factor stimulation, and membrane permeability may explain its negative effect on the symptoms of acne.

[4] = 5% lipoic acid in lecithin-based oil-in-water cream, topical twice daily, one value per patient (Pt. #1-#8)

What does the source list for `O=C(O)CCCCC1CCSS1` (centres unmarked) [lipoic acid, 1,2-dithiolane-3-pentanoic acid]?
improvement in two patients with severe atrophic acne scars ([1]; 5% cream, topical twice daily): 80%; improvement of atrophic scars, all patients with atrophic scars ([1]; 5% cream, topical twice daily): improved; change in pustules, papules, and comedones ([1]; 5% cream, within three to four weeks, benefits continued to increase over three to four months): marked decrease; Erythema % Improvement [1, 4]: 80% (3×) and 50% (5×); Pore Size % Improvement [1, 4]: 50% (3×) and 90% (5×); Scar Depth % Improvement [1, 4]: 50% (4×) and 80% (2×) and 70% (2×); adverse side effects [2]: no adverse side effects; concentration in sebaceous gland tissue [3]: high concentrations
